# Experiments:
# Carbonic anhydrase 1 = Carbonic anhydrase 1 (Homo sapiens, UniProt P00915)
# Description: Inhibition of human carbonic anhydrase I (CAI)
# Carbonic anhydrase 2 = Carbonic anhydrase 2 (Homo sapiens, UniProt P00918)
# Description: Inhibition of human carbonic anhydrase II (hCA II)
# Carbonic anhydrase 4 = molecular target: T1, Carbonic anhydrase 4 (Bos taurus, UniProt Q95323)
# T1 sequence (Q95323 whole entry): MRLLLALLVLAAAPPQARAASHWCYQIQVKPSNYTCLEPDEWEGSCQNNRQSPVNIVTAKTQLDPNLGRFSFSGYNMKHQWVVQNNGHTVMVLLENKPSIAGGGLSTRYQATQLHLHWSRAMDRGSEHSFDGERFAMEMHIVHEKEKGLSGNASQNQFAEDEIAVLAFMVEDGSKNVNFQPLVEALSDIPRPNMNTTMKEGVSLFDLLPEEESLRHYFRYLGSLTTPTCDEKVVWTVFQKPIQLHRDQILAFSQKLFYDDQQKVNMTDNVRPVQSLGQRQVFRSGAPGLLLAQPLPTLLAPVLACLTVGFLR
# Description: Inhibition of bovine carbonic anhydrase IV from bovine lung microsomes
# Chain of Carbonic anhydrase 1 (P00915 whole entry): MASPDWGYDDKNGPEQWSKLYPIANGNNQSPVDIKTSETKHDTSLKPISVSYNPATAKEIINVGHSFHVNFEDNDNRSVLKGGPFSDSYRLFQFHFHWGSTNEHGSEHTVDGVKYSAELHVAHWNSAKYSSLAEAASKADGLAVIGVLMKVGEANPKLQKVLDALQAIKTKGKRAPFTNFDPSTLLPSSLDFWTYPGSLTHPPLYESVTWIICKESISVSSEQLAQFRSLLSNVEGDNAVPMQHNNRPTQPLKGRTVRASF
SMILES,Ki (Carbonic anhydrase 1) [nM],Ki (Carbonic anhydrase 2) [nM],Ki (Carbonic anhydrase 4) [nM]
NS(=O)(=O)c1nnc(NS(=O)(=O)c2ccc(NSC(=S)N3CCOCC3)cc2)s1,5,1.4,4
Cn1nc(S(N)(=O)=O)s/c1=N/S(=O)(=O)c1ccc(NSC(=S)N2CCOCC2)cc1,2,0.5,1.3
NS(=O)(=O)c1nnc(NSC(=S)N2CCOCC2)s1,240,6,25
CCN(C)C(=S)SNc1ccc(S(N)(=O)=O)cc1,15000,48,140
NS(=O)(=O)c1ccc(NS(=O)(=O)c2ccc(NSC(=S)N3CCOCC3)cc2)cc1,30,3,10

# The remaining lines, values ahead:
Ki (Carbonic anhydrase 1) [nM],Ki (Carbonic anhydrase 2) [nM],Ki (Carbonic anhydrase 4) [nM],SMILES
560,15,90,NS(=O)(=O)c1cc(S(N)(=O)=O)c(NSC(=S)N2CCOCC2)cc1Cl
500,18,49,NS(=O)(=O)c1cc(S(N)(=O)=O)c(NSC(=S)N2CCOCC2)c(Cl)c1Cl
11500,780,500,NS(=O)(=O)c1ccccc1NSC(=S)N1CCOCC1
31,7,10,NS(=O)(=O)c1cccc(NS(=O)(=O)c2ccc(NSC(=S)N3CCOCC3)cc2)c1
630,11,30,CCN(C)C(=S)SNCCc1ccc(S(N)(=O)=O)cc1
950,13,41,CCN(C)C(=S)SNCc1ccc(S(N)(=O)=O)cc1
2400,48,96,NS(=O)(=O)c1ccc(NSC(=S)N2CCOCC2)c(Br)c1

# Source: ChEMBL document CHEMBL1132884, “Carbonic anhydrase inhibitors: synthesis of N-morpholylthiocarbonylsulfenylamino aromatic/heterocyclic sulfonamides and their interaction with isozymes I, II and IV” (Bioorg Med Chem Lett, 2000)
